In PMC4785407, “Reduction Impairs the Antibacterial Activity but Benefits the LPS Neutralization Ability of Human Enteric Defensin 5” (Scientific Reports, 2016):
“Also recorded” adds a separate entry of the source. Bridge positions count the residues as written; N and C are the ends. Peptide text beside a SMILES is read from it.

Columns and labels:
[1] = system: E. coli ML35 cells; assay: Membrane depolarization, flow cytometry DiBAC4(3); settings: 6.25 μg/mL; for DP (depolarized cells): 37 °C, 1 h, DiBAC4(3) flow cytometry, representative scatter plot
[2] = system: E. coli; assay: Antibacterial assay in the presence of LPS; assay type: cell-based; settings: 4 μg/mL LPS, 12.5 μg/mL peptide
Protocol: (B) Heat release of the interaction between 1 mg/mL of the peptides and 10 μg/mL of LPS. Shown is the relationship between the enthalpy value (△H) and the weight ratio of peptides to LPS. […] The antibacterial efficiency is presented as the bacterial lethal rate, which is calculated by dividing the number of killed colonies by the number of colonies remaining after treatment with sterile water or 0.25 mM DTT. Statistical significance was determined by the Student’s t-test. n.s, not significant; **p < 0.01.

[3] = system: Escherichia coli (ATCC 25922); assay: virtual colony count assay, E. coli; assay type: cell-based; settings: for LD50 (Lethal Dose that kills 50% of bacteria) / LD90 (Lethal Dose that kills 90% of bacteria): ATCC 25922 E. coli, 1 × 10^6 CFU/mL, 10 mM sodium phosphate buffer pH 7.4, 1% TSB, 37 °C, 1 h, duplicate, repeated three times
Protocol: Figure 3 Reduction attenuates the antibacterial activity of HD5OX against Gram-negative bacteria. […] Peptides were prepared in sterile water, with the final concentrations of 0.78, 1.56, 3.13, 6.25, 12.5, and 25 μg/mL. […] Zero survival points are not plotted.

[4] = system: intestinal epithelial cells; settings: cited from earlier work
Source text: (§1) Human defensins are also noted for their immunoregulatory properties. […] Additionally, some defensins are able to suppress the pro-inflammatory effect of bacterial lipopolysaccharide (LPS). For example, H ...

[5] = system: CD4^+T cells; settings: cited from earlier work
Source text: as §1

[6] = system: anthrax lethal factor (LF); settings: cited from earlier work
[7] = system: interaction between LPS and LBP (mouse LBP); assay: LPS-binding protein (LBP) block assay; assay type: biochemical; settings: for effect on the interaction between LPS and LBP: 50 μg/mL peptide, mouse LBP 60 ng/mL, biotinylated LPS 50 ng/mL
Protocol: The effects of peptides on the interaction between LPS and low concentrations of LBP were determined as previously described. Briefly, the plates of a LBP ELISA kit (Boster EK1274) were blocked by the incubation of 1% BSA prepared in 10 mM sodium phosphate buffer (pH 7.4) at 37 °C for 1 h, which were subsequently washed with 0.1% Tween-20. Aliquots of 100 μL of mouse LBP (Sigma SRP6034, 60 ng/mL) were added and incubated at 37 °C for 1.5 h. Peptides were prepared in sterile water, with concentrations of 12.5, 25, and 50 μg/mL, respectively. Biotinylated LPS (50 ng/mL) was added in the absence or presence of peptides (pre-incubated at 37 °C for 30 min). Polymyxin B (200 ng/mL) was used as a positive control. The binding of LPS to LBP was determined using a chromogenic reaction between HRP-conjugated streptavidin (Boster BA1088) and TMB (Sigma 860336). Data were processed by subtracting the absorbance in the absence of LPS. Statistical significance was determined by the Student−Newman−Keuls multiple comparisons test.
Figure 5. The efficiencies of peptides in blocking the interaction between LPS and LBP. A LBP ELISA plate was blocked by 1% BSA and subsequently washed with 0.1% Tween-20. Aliquots of 100 μL of the mouse LBP (60 ng/mL) was added and incubated at 37°C for 1.5 h. Peptides were prepared in sterile water, with concentrations of 12.5, 25, and 50 μg/mL, respectively. Biotinylated LPS (50 ng/mL) was then added in the absence or presence of peptides (pre-incubated at 37°C for 30 min). Data were processed by subtracting the absorbance in the absence of biotinylated LPS. Statistical significance was determined by the Student−Newman−Keuls multiple comparisons test. n.s, not significant; **, p < 0.01, relative to the value of the group solely treated with LPS.

[8] = cited from earlier work
Source text: Upon examining the biochemical properties of synthetic IDRs, the structural flexibility was noted. For example, the bovine bactenecin linear derivative 1018 adopts various folds in different media, relative to the natural peptide, to adapt to different functions. […] It can be exp ...

[9] = system: bacteria; settings: among the α defensins; cited from earlier work
Source text: Oxidized human defensin 5 (HD5OX), a 32-residue α defensin, is stored in the secretory granules of Paneth cells in the small intestine as a propeptide (E20-R94) and is processed by anionic and/or meso isoforms of trypsin during secretion or shortly thereafter at a cleavage site between R62 and A63[6]. […] We have previously prepared bioactive HD5OX using Pichia pastoris and design ... || HD5OX is an endogenous bactericidal agent.

[10] = system: E. coli ML35 (ATCC 43827) outer membrane; assay: Outer membrane penetration (NPN uptake assay); assay type: cell-based; settings: 6.25 μg/mL, 10 mM sodium phosphate buffer pH 7.4, 37 °C, 1 h; vs HD5OX
Protocol: Then, an aliquot of 10 μL of NPN (Sigma 104043) was added, resulting in a final concentration of 10 μM. After excitation at 350 nm, the fluorescent intensity was measured in the range from 380-450 nm at intervals of 2 nm using a Tecan Infinite […] microplate reader.

[11] = Hydrophobicity of the Trx reduction product (LC-MS); assay type: physicochemical; settings: linear gradient of 5–45% acetonitrile with 0.1% TFA, vs HD5OX
Protocol: A mixture of 30 μM HD5OX, 15 μM human thioredoxin (Trx, Prospec PRO569), 500 nM rat liver thioredoxin reductase (TrxR, Sigma T9698), 1 mM NADPH (Sigma N5130), and 2 mM EDTA was incubated in 100 mM sodium phosphate buffer (pH 7.0) at room temperature for 1 h. The reaction was quenched by adding 6% trifluoroacetic acid (TFA). The solution was then centrifuged (10,000 g × 10 min) at 4 °C and analyzed with an Agilent 6410 liquid chromatography-mass spectrometry (LC-MS) instrument using a linear gradient of 5–45% acetonitrile that contained 0.1% TFA.

[12] = system: E. coli ML35 (ATCC 43827) cells; assay: Zeta potential determination; assay type: cell-based
Protocol: Samples were equilibrated at 25 °C for 2 min. Zeta potential was determined using the Zetasizer Nano ZS (Malvern Instruments, UK). A total of 6 measurements of 100 runs were carried out for each sample.

[13] = system: Enterococcus faecalis (ATCC 29212); assay: virtual colony count assay, E. faecalis; settings: HD5OX vs HD5RED

Structure (SMILES) | DP (depolarized cells) [1] | antibacterial efficiency in presence of LPS [2] | LD50 (Lethal Dose that kills 50% of bacteria) [3] | LD90 (Lethal Dose that kills 90% of bacteria) [3] | antibacterial action against E. coli, relative ([3]; virtual colony count, 0.78-25 μg/mL, HD5OX vs HD5RED) | IL-8 production [4] | IL-2 production [5] | binding and inhibition of anthrax lethal factor [6] | effect on the interaction between LPS and LBP [7] | LPS binding [8] | antibacterial activity [9] | outer membrane destruction (NPN fluorescence intensity) [10] | membrane depolarization, relative ([1]; HD5RED vs HD5OX, mean of three independent experiments) | fold of concentration needed to inactivate 90% relative to HD5OX ([3]; E. coli ATCC 25922, higher than HD5OX) | hydrophobicity of product [11] | LBP-blocking, dose dependence ([7]; 12.5, 25, and 50 μg/mL) | zeta potential of cells, compared with HD5OX ([12]; 12.5 and 50 μg/mL, peptide vs HD5OX) | zeta potential of cells ([12]; E. coli ML35 cells, 10 mM sodium phosphate buffer pH 7.4, 1% TSB, 25 °C) | efficiency against Gram-positive E. faecalis, relative [13]
CC[C@H](C)[C@@H]1NC(=O)[C@H](CCC(=O)O)NC(=O)[C@@H]2CSSC[C@@H]3NC(=O)[C@H](Cc4ccc(O)cc4)NC(=O)[C@@H](NC(=O)[C@@H](NC(=O)[C@H](C)N)[C@@H](C)O)CSSC[C@@H](C(=O)N[C@@H](CCCNC(=N)N)C(=O)O)NC(=O)[C@H](CSSC[C@H](NC(=O)[C@H](CCCNC(=N)N)NC(=O)CNC(=O)[C@H]([C@@H](C)O)NC(=O)[C@H](CCCNC(=N)N)NC3=O)C(=O)N[C@@H](C)C(=O)N[C@@H]([C@@H](C)O)C(=O)N[C@@H](CCCNC(=N)N)C(=O)N[C@@H](CCC(=O)O)C(=O)N[C@@H](CO)C(=O)N[C@@H](CC(C)C)C(=O)N[C@@H](CO)C(=O)NCC(=O)N[C@@H](C(C)C)C(=O)N2)NC(=O)[C@H](CC(C)C)NC(=O)[C@H](CCCNC(=N)N)NC(=O)[C@H](Cc2ccc(O)cc2)NC(=O)[C@H](CC(C)C)NC(=O)[C@H](CCCNC(=N)N)NC(=O)CNC(=O)[C@H](CO)NC1=O [HD5OX, Oxidized human defensin 5] (H-ATCYCRTGRCATRESLSGVCEISGRLYRLCCR-OH; disulfide 3-31, 5-20, 10-30; N-terminus and C-terminus assumed) | 31.8% | virtually unaffected | 3.2 ± 0.7 µg/mL | 7.6 ± 1.1 µg/mL | more potent action against these bacteria than HD5RED | can induce the production of IL-8 | can induce the production of IL-8 and IL-2 | efficiently bind and inhibit anthrax lethal factor | less effect on the interaction between LPS and LBP | can bind LPS | widest spectrum of antibacterial activity among the α defensins | – | – | – | – | – | – | – | –
CC[C@H](C)[C@H](NC(=O)[C@H](CCC(=O)O)NC(=O)[C@H](CS)NC(=O)[C@@H](NC(=O)CNC(=O)[C@H](CO)NC(=O)[C@H](CC(C)C)NC(=O)[C@H](CO)NC(=O)[C@H](CCC(=O)O)NC(=O)[C@H](CCCNC(=N)N)NC(=O)[C@@H](NC(=O)[C@H](C)NC(=O)[C@H](CS)NC(=O)[C@H](CCCNC(=N)N)NC(=O)CNC(=O)[C@@H](NC(=O)[C@H](CCCNC(=N)N)NC(=O)[C@H](CS)NC(=O)[C@H](Cc1ccc(O)cc1)NC(=O)[C@H](CS)NC(=O)[C@@H](NC(=O)[C@H](C)N)[C@@H](C)O)[C@@H](C)O)[C@@H](C)O)C(C)C)C(=O)N[C@@H](CO)C(=O)NCC(=O)N[C@@H](CCCNC(=N)N)C(=O)N[C@@H](CC(C)C)C(=O)N[C@@H](Cc1ccc(O)cc1)C(=O)N[C@@H](CCCNC(=N)N)C(=O)N[C@@H](CC(C)C)C(=O)N[C@@H](CS)C(=O)N[C@@H](CS)C(=O)N[C@@H](CCCNC(=N)N)C(=O)O [HD5RED] (H-ATCYCRTGRCATRESLSGVCEISGRLYRLCCR-OH) | 2.04% | significantly impaired | 6.5 ± 0.8 µg/mL | 12.9 ± 1.3 µg/mL | – | – | – | – | significantly inhibited the LPS-LBP interaction | – | – | destroys the outer membrane less effectively than HD5OX | less efficiency of HD5RED in inducing membrane depolarization relative to HD5OX; also recorded: significantly lower than that of HD5OX | 1.7 -fold | increased hydrophobicity | dose-dependent LBP-blocking | significantly less than that of cells treated with HD5OX; also recorded: less efficient in altering the bacterial surface charge than HD5OX | approximately −37 mV | less than HD5OX
